Data taken from BindingDB's records for PubMed 40188441 (Shanghai Jiao Tong University).

Assay: Inhibition of human STING in human THP-1 Dual cells assessed as secreted luciferase reporter of interferon stimulated gene (ISG) measured after 24 hrs incubation by QUANTI-Luc detection assay

| Compound | IC50 |
| --- | --- |
| O=C(Nc1c[nH]c2ccccc12)N1CCc2[nH]c3c(Cl)c(Cl)ccc3c2C1 | 2120 nM |
| O=C(Nc1c[nH]c2ccccc12)N1CCc2[nH]c3c(Cl)c(Cl)cc(Br)c3c2C1 | 2050 nM |
| Cn1ccc(-c2cc(Cl)c(Cl)c3[nH]c4c(c23)CN(C(=O)Nc2c[nH]c3ccccc23)CC4)n1 | > 10000 nM |
| Cc1ccc2c(NC(=O)N3CCc4[nH]c5c(Cl)c(Cl)ccc5c4C3)c[nH]c2c1 | > 10000 nM |
| COc1ccc2c(NC(=O)N3CCc4[nH]c5c(Cl)c(Cl)ccc5c4C3)c[nH]c2c1 | > 10000 nM |
| O=C(Nc1c[nH]c2cc(F)ccc12)N1CCc2[nH]c3c(Cl)c(Cl)ccc3c2C1 | 3180 nM |
| O=C(Nc1c[nH]c2cc(Cl)ccc12)N1CCc2[nH]c3c(Cl)c(Cl)ccc3c2C1 | 3310 nM |
| COc1ccc2[nH]cc(NC(=O)N3CCc4[nH]c5c(Cl)c(Cl)ccc5c4C3)c2c1 | 2380 nM |
| O=C(Nc1c[nH]c2ccc(F)cc12)N1CCc2[nH]c3c(Cl)c(Cl)ccc3c2C1 | 2400 nM |
| O=C(Nc1c[nH]c2ccc(Br)cc12)N1CCc2[nH]c3c(Cl)c(Cl)ccc3c2C1 | 791 nM |
| O=C(Nc1c[nH]c2ccc(F)cc12)N1CCc2oc3c(Cl)c(Cl)ccc3c2C1 | 382 nM |
| O=C(Nc1c[nH]c2ccc(Br)cc12)N1CCc2oc3c(Cl)c(Cl)ccc3c2C1 | 353 nM |
| O=C(Nc1ccc2c(c1)OC(F)(F)O2)Nc1c[nH]c2ccccc12 | 18 nM |
| O=C(Nc1cccc2c1OC(F)(F)O2)Nc1c[nH]c2ccccc12 | 1830 nM |
| O=C(Nc1ccc2c(c1)OC(F)(F)C(F)(F)O2)Nc1c[nH]c2ccc(F)cc12 | 110 nM |
| O=C(Nc1ccc2c(c1)OCO2)Nc1c[nH]c2ccc(F)cc12 | 3470 nM |
| O=C(Nc1ccc2c(c1)OCCO2)Nc1c[nH]c2ccc(F)cc12 | 1350 nM |
| O=C(Nc1ccc2c(c1)COB2O)Nc1c[nH]c2ccc(F)cc12 | > 10000 nM |
| O=C(Nc1ccc2c(c1)CCN2)Nc1c[nH]c2ccc(F)cc12 | > 10000 nM |
| O=C(Nc1ccc2c(c1)NCC2)Nc1c[nH]c2ccc(F)cc12 | 1220 nM |
| CN1CCc2cc(NC(=O)Nc3c[nH]c4ccc(F)cc34)ccc21 | 1180 nM |

| Compound | IC50 |
| --- | --- |
| O=C(Nc1ccc2c(c1)OC(F)(F)O2)Nc1c[nH]c2ccc(Br)cc12 | 71 nM |
| O=C(Nc1ccc2c(c1)OC(F)(F)O2)Nc1c[nH]c2ccc(Cl)cc12 | 66 nM |
| C=CC(=O)Nc1ccc2[nH]cc(NC(=O)Nc3ccc4c(c3)OC(F)(F)O4)c2c1 | > 10000 nM |
| CCOP(=O)(Cc1ccc2[nH]cc(NC(=O)Nc3ccc4c(c3)OC(F)(F)O4)c2c1)OCC | > 10000 nM |
| C#Cc1ccc2[nH]cc(NC(=O)Nc3ccc4c(c3)OC(F)(F)O4)c2c1 | 119 nM |
| O=C(Nc1ccc2c(c1)OC(F)(F)O2)Nc1c[nH]c2ccc(C#CC(F)(F)F)cc12 | > 10000 nM |
| O=C(Nc1ccc2c(c1)OC(F)(F)O2)Nc1c[nH]c2ccc(C#CC3CC3)cc12 | 258 nM |
| CC(=O)OCC#Cc1ccc2[nH]cc(NC(=O)Nc3ccc4c(c3)OC(F)(F)O4)c2c1 | 489 nM |
| O=C(Nc1ccc2c(c1)OC(F)(F)O2)Nc1c[nH]c2ccc(C#CCO)cc12 | 2190 nM |
| Cn1cc(C#Cc2ccc3[nH]cc(NC(=O)Nc4ccc5c(c4)OC(F)(F)O5)c3c2)cn1 | 264 nM |
| COC(=O)/C=C/c1ccc2[nH]cc(NC(=O)Nc3ccc4c(c3)OC(F)(F)O4)c2c1 | 3650 nM |
| N#C/C=C/c1ccc2[nH]cc(NC(=O)Nc3ccc4c(c3)OC(F)(F)O4)c2c1 | > 10000 nM |
| N#CC/C=C/c1ccc2[nH]cc(NC(=O)Nc3ccc4c(c3)OC(F)(F)O4)c2c1 | 116 nM |
| COCCOCCn1cc(-c2ccc3[nH]cc(NC(=O)Nc4ccc5c(c4)OC(F)(F)O5)c3c2)nn1 | 2490 nM |
| O=C(Nc1ccc2c(c1)OC(F)(F)O2)Nc1c[nH]c2ccc(-c3cn(CCN4CCOCC4)nn3)cc12 | > 10000 nM |
| O=C(Nc1ccc2c(c1)OC(F)(F)O2)Nc1c[nH]c2ccc(-c3cn(CCO)nn3)cc12 | > 10000 nM |
| Fc1ccc2[nH]cc(Nc3nc4cc5c(cc4[nH]3)OC(F)(F)O5)c2c1 | 192 nM |
| Fc1ccc2[nH]cc(Nc3nc4cc(C(F)(C(F)(F)F)C(F)(F)F)ccc4[nH]3)c2c1 | 269 nM |
| Fc1ccc2[nH]cc(Nc3nc4cc(C5CCCC5)ccc4[nH]3)c2c1 | 43 nM |
| Fc1cc2[nH]cc(Nc3nc4cc(C5CCCC5)ccc4[nH]3)c2cc1F | 216 nM |
| Fc1cnc2[nH]cc(Nc3nc4cc(C5CCCC5)ccc4[nH]3)c2c1 | 44 nM |
